According to patent publication US9290507B2, “B-RAF kinase inhibitors” (Boehringer Ingelheim International GmbH, priority 2010, dated 2016):

Target: B-Raf (V600E)-kinase (Homo sapiens (Human), UniProt P15056, V600E)
Assay: Kinase test B-Raf (V600E)
Assay type: biochemical
Conditions: 1 h preincubation, 250 μM ATP
Procedure: In a dilution series 10 μL/well of test substance solution are placed in a multiwell plate. The dilution series is selected so that generally a range of concentrations of 2 μM to 0.119 nM or 0.017 nM is covered. If necessary the initial concentration of 2 μM is changed to 50 μM, 10 μM or 0.4 μM or 0.2857 μM and further dilution is carried out accordingly. The final concentration of DMSO is 5%. 10 μL/well of the B-Raf (V600E)-kinase solution are pipetted in (containing 0.5 ng B-Raf (V600E)-kinase (e.g. from Upstate) in 20 mM Tris-HCl pH 7.5, 0.1 mM EDTA, 0.1 mM EGTA, 0.286 mM sodium orthovanadate, 10% glycerol, 1 mg/mL bovine serum albumin, 1 mM dithiothreitol) and the mixture is incubated for 1 h at RT under with shaking. The kinase reaction is started by the addition of 20 μL/well ATP solution [final concentration: 250 μM ATP, 30 mM Tris-HCl pH 7.5, 0.02% Brij, 0.2 mM sodium orthovanadate, 10 mM magnesium acetate, 0.1 mM EGTA, phosphatase cocktail (Sigma, #P2850, dilution recommended by the manufacturer)] and 10 μL/well MEK1 solution [containing 50 ng biotinylated MEK1 (prepared from purified MEK1 according to standard procedure, e.g. with EZ-Link Sulpho-NHS-LC-Biotin reagent, Pierce, #21335)] and carried out for 60 min at RT with constant shaking. The reaction is stopped by the addition of 12 μL/well of a 100 mM EDTA solution and incubation is continued for a further 5 min. 55 μL/well of the reaction solution are transferred into a streptavidin-coated plate (e.g. Streptawell HighBond, Roche, #11989685001) and shaken gently for 1 h at RT, in order to bind biotinylated MEK1 to the plate. After elimination of the liquid the plate is washed five times with 200 μL/well of 1×PBS and 100 μL/well solution of primary antibody plus europium-labelled secondary antibody [Anti Phospho-MEK (Ser217/221), Cell Signaling, #9121 and Eu-N1 labelled goat-anti-rabbit antibody, Perkin Elmer, #AD0105] is added, the primary antibody is diluted 1:2000 and the secondary antibody is diluted to 0.4-0.5 μg/mL in Delfia Assay Buffer (Perkin Elmer, #1244-111). After 1 h shaking at RT the solution is poured away and washed five times with 200 μL/well Delfia Wash Buffer (Perkin Elmer, #4010-0010/#1244-114). After the addition of 200 μL/well Enhancement Solution (Perkin Elmer, #4001-0010/#1244-105) the mixture is shaken for 10 min at RT and then measured in a Wallac Victor using the program “Delfia Time Resolved Fluorescence (Europium)”. IC50 values are obtained from these dosage-activity curves using a software program (GraphPadPrizm).

Chain of B-Raf (V600E)-kinase (P15056 whole entry V600E): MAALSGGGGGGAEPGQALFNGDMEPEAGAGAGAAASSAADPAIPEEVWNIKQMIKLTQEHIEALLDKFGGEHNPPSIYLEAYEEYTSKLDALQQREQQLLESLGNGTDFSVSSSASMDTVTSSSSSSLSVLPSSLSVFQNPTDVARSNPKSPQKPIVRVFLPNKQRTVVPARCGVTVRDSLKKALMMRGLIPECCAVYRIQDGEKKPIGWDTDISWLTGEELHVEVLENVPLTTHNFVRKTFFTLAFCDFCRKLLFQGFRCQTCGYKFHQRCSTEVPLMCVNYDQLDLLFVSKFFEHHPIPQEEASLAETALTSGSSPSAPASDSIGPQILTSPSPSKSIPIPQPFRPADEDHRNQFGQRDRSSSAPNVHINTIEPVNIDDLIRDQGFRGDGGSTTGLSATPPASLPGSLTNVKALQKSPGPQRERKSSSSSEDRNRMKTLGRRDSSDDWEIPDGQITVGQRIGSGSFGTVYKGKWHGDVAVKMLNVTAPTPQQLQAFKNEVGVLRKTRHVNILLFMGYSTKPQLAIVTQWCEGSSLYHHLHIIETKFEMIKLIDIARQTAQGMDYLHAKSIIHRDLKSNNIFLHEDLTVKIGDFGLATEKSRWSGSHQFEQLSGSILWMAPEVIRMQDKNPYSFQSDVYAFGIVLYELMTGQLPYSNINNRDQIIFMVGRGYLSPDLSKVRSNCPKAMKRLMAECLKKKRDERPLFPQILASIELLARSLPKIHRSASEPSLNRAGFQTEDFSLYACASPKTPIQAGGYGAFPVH

Row | IC50 [nM] | SMILES
1 | 6 | Cc1ccc(C(=O)Nc2cc(C(F)(F)F)ccn2)cc1-n1cc(-c2cncc(NC3CCN(C)C3)c2)nn1 (centres unmarked) [I-63]
2 | 69 | Cc1ccc(C(=O)Nc2cc(C(F)(F)F)ccn2)cc1-n1cc(-c2cncc(N3CCCCC3)c2)nn1 [I-64]
3 | 9 | Cc1ccc(C(=O)Nc2cc(C(F)(F)F)ccn2)cc1-n1cc(-c2cncc(N(C)CCN3CCCC3)c2)nn1 [I-65]
4 | 44 | Cc1ccc(C(=O)Nc2cc(C(F)(F)F)ccn2)cc1-n1cc(-c2cncc(NC3CC3)c2)nn1 [I-66]
5 | 24 | Cc1ccc(C(=O)Nc2cc(C(F)(F)F)ccn2)cc1-n1cc(-c2cncc(N3CCCOCC3)c2)nn1 [I-67]
6 | 7 | Cc1ccc(C(=O)Nc2cc(C(F)(F)F)ccn2)cc1-n1cc(-c2cncc(N(C)C3CCOC3)c2)nn1 (centres unmarked) [I-68]
7 | 30 | Cc1ccc(C(=O)Nc2cc(C(F)(F)F)ccn2)cc1-n1cc(-c2cncc(N(C)C3CCOCC3)c2)nn1 [I-69]
8 | 11 | Cc1ccc(C(=O)Nc2cc(C(F)(F)F)ccn2)cc1-n1cc(-c2cncc(NC3CCOC3)c2)nn1 (centres unmarked) [I-70]
9 | 4 | Cc1ccc(C(=O)Nc2cc(C(F)(F)F)ccn2)cc1-n1cc(-c2cncc(N3C[C@@H]4C[C@H]3CN4)c2)nn1 [I-71]
10 | 12 | Cc1ccc(C(=O)Nc2cc(C(F)(F)F)ccn2)cc1-n1cc(-c2cncc(N3CCOCC3)c2)nn1 [I-72]
11 | 34 | COCCN(C)c1cncc(-c2cn(-c3cc(C(=O)Nc4cc(C(F)(F)F)ccn4)ccc3C)nn2)c1 [I-73]
12 | 7 | Cc1ccc(C(=O)Nc2cc(C(F)(F)F)ccn2)cc1-n1cc(-c2cncc(N3CCC(N(C)C)C3)c2)nn1 (centres unmarked) [I-75]
13 | 21 | Cc1ccc(C(=O)Nc2cc(C(F)(F)F)ccn2)cc1-n1cc(-c2cncc(NC3CCN(C)CC3)c2)nn1 [I-76]
14 | 5 | Cc1ccc(C(=O)Nc2cc(C(F)(F)F)ccn2)cc1-n1cc(-c2cncc(N3CCNCC3)c2)nn1 [I-77]
15 | 4 | Cc1ccc(C(=O)Nc2cc(C(F)(F)F)ccn2)cc1-n1cc(-c2cncc(N(C)C3CCN(C)C3)c2)nn1 (centres unmarked) [I-78]
16 | 9 | Cc1ccc(C(=O)Nc2cc(C(F)(F)F)ccn2)cc1-n1cc(-c2cncc(N3CC[C@H](N(C)C)C3)c2)nn1 [I-79]
17 | 15 | Cc1ccc(C(=O)Nc2cc(C(F)(F)F)ccn2)cc1-n1cc(-c2cncc(N3CC[C@@H](N(C)C)C3)c2)nn1 [I-80]
18 | 10 | Cc1ccc(C(=O)Nc2cc(C(F)(F)F)ccn2)cc1-n1cc(-c2cncc(NC3CCOCC3)c2)nn1 [I-81]
19 | 6 | Cc1ccc(C(=O)Nc2cc(C(F)(F)F)ccn2)cc1-n1cc(-c2cncc(N3C[C@@H]4C[C@H]3CN4C)c2)nn1 [I-82]
20 | 7 | Cc1ccc(C(=O)Nc2cc(C(F)(F)F)ccn2)cc1-n1cc(-c2cncc(N3CCN(C)CC3)c2)nn1 [I-83]
21 | 7 | Cc1ccc(C(=O)Nc2cc(C(F)(F)F)ccn2)cc1-n1cc(-c2cncc(N3CCCC3)c2)nn1 [I-84]
22 | 10 | Cc1ccc(C(=O)Nc2cc(C(F)(F)F)ccn2)cc1-n1cc(-c2cncc(NCCN(C)C)c2)nn1 [I-85]
23 | 10 | Cc1ccc(C(=O)Nc2cc(C(F)(F)F)ccn2)cc1-n1cc(-c2cncc(N(C)CCN(C)C)c2)nn1 [I-86]
24 | 7 | CCN1CCN(c2cncc(-c3cn(-c4cc(C(=O)Nc5cc(C(F)(F)F)ccn5)ccc4C)nn3)c2)CC1 [I-87]
25 | 8 | Cc1ccc(C(=O)Nc2cc(C(F)(F)F)ccn2)cc1-n1cc(-c2cncc(N3CCN(C(C)C)CC3)c2)nn1 [I-88]
26 | 6 | Cc1ccc(C(=O)Nc2cc(C(C)(C)C)on2)cc1-n1cc(-c2cncc(N3CCC(N4CCN(C)CC4)C3)c2)nn1 (centres unmarked) [I-89]

Row | IC50 [nM] | SMILES
27 | 10 | Cc1ccc(C(=O)Nc2cc(C(C)(C)C)on2)cc1-n1cc(-c2cncc(N3CCC(N4CCN(C)CC4)CC3)c2)nn1 [I-90]
28 | 8 | Cc1ccc(C(=O)Nc2cc(C(C)(C)C)on2)cc1-n1cc(-c2cncc(N3CCCN(C)CC3)c2)nn1 [I-91]
29 | 8 | Cc1ccc(C(=O)Nc2cc(C(C)(C)C)on2)cc1-n1cc(-c2cncc(N3CCC(N4CCN(C(C)C)CC4)C3)c2)nn1 (centres unmarked) [I-92]
30 | 8 | Cc1ccc(C(=O)Nc2cc(C(C)(C)C)on2)cc1-n1cc(-c2cncc(N3CC(N4CCN(C)CC4)C3)c2)nn1 [I-93]
31 | 9 | Cc1ccc(NC(=O)c2cc(C(F)(F)F)ccn2)cc1-n1cc(-c2cncc(N3CCOCC3)c2)nn1 [II-1]
32 | 14 | Cc1ccc(NC(=O)c2cc(CNC(C)C)c(C(C)(C)C)o2)cc1-n1cc(-c2cncc(N3CCOCC3)c2)nn1 [II-2]
33 | 3 | Cc1ccc(NC(=O)c2ccc(C(C)(C)C)o2)cc1-n1cc(-c2cncc(N3CCN(C(C)(C)C)CC3)c2)nn1 [II-3]
34 | 11 | Cc1ccc(NC(=O)c2cc(C(C)(C)C)nn2C)cc1-n1cc(-c2cncc(N3CCOCC3)c2)nn1 [II-4]
35 | 8 | Cc1ccc(NC(=O)c2cc(C(C)(C)C)on2)cc1-n1cc(-c2cncc(N3CCOCC3)c2)nn1 [II-5]
36 | 8 | Cc1ccc(NC(=O)c2cc(C(C)(C)C)nn2C)cc1-n1cc(-c2cncc(N3CCN(C)CC3)c2)nn1 [II-6]
37 | 4 | Cc1ccc(NC(=O)c2cc(C(F)(F)F)ccn2)cc1-n1cc(-c2cncc(N3CCN(C)CC3)c2)nn1 [II-7]
38 | 5 | Cc1ccc(NC(=O)c2cc(C(C)(C)C)on2)cc1-n1cc(-c2cncc(N3CCN(C)CC3)c2)nn1 [II-8]
39 | 18 | Cc1ccc(NC(=O)c2cc(C)n(C(C)(C)C)n2)cc1-n1cc(-c2cncc(N3CCOCC3)c2)nn1 [II-9]
40 | 11 | Cc1ccc(NC(=O)c2cc(CN3CCCC3)c(C(C)(C)C)o2)cc1-n1cc(-c2cncc(N3CCOCC3)c2)nn1 [II-10]
41 | 10 | Cc1ccc(NC(=O)c2ccc(C(C)(C)C)s2)cc1-n1cc(-c2cncc(N3CCOCC3)c2)nn1 [II-11]
42 | 15 | Cc1ccc(NC(=O)c2cc(C(C)(C)C)oc2C)cc1-n1cc(-c2cncc(N3CCOCC3)c2)nn1 [II-12]
43 | 9 | Cc1ccc(NC(=O)c2ccc(C(C)(C)C)o2)cc1-n1cc(-c2cncc(N3CCOCC3)c2)nn1 [II-13]
44 | 3 | CCN1CCN(c2cncc(-c3cn(-c4cc(NC(=O)c5ccc(C(C)(C)C)o5)ccc4C)nn3)c2)CC1 [II-14]
45 | 2 | Cc1ccc(NC(=O)c2ccc(C(C)(C)C)o2)cc1-n1cc(-c2cncc(N3CCN(C)CC3)c2)nn1 [II-15]
46 | 2 | Cc1ccc(NC(=O)c2ccc(C(C)(C)C)o2)cc1-n1cc(-c2cncc(N3CCN(CC4CC4)CC3)c2)nn1 [II-16]
47 | 1 | COCCCN1CCN(c2cncc(-c3cn(-c4cc(NC(=O)c5ccc(C(C)(C)C)o5)ccc4C)nn3)c2)CC1 [II-17]
48 | 5 | C=CCN1CCN(c2cncc(-c3cn(-c4cc(NC(=O)c5ccc(C(C)(C)C)o5)ccc4C)nn3)c2)CC1 [II-18]
49 | 5 | Cc1ccc(NC(=O)c2ccc(C(C)(C)C)o2)cc1-n1cc(-c2cncc(N3CCN(CC(C)C)CC3)c2)nn1 [II-19]
50 | 1 | Cc1ccc(NC(=O)c2ccc(C(C)(C)C)o2)cc1-n1cc(-c2cncc(N3CCNCC3)c2)nn1 [II-21]
51 | 7 | CCOCCN1CCN(c2cncc(-c3cn(-c4cc(NC(=O)c5ccc(C(C)(C)C)o5)ccc4C)nn3)c2)CC1 [II-22]
52 | 141 | Cc1ccc(NC(=O)c2ccc(C(C)(C)C)s2)cc1-n1cc(-c2cncc(N3CCN(C(=O)OC(C)(C)C)CC3)c2)nn1 [II-23]

Row | SMILES | IC50 [nM]
53 | Cc1ccc(C(=O)Nc2cc(C(F)(F)F)ccn2)cc1-n1cc(-c2cncc(N(C)C3CCN(C)CC3)c2)nn1 [I-74] | 12
